The text below walks through data of the supplement of paper PMC10331698.

± gives the standard deviation of the averaged measurements.

Experiment in all cases: level (log10 ratio to DMSO vehicle control); higher = higher biomarker level / cell amount than vehicle control
Holding throughout (conditions): in DMSO

Compound in assay [1]: O=C(O)C(F)(F)C(F)(F)C(F)(F)C(F)(F)C(F)(F)C(F)(F)C(F)(F)C(F)(F)Cl [9-Chloro-perfluorononanoic acid]
The procedure: (§1)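 BioMAP Diversity Plus panel of 12 human primary cell co-culture systems (3C, 4H, LPS, SAg, BT, BF4T, BE3C, CASM3C, HDF3CGF, KF3CT, MyoF, Mphg). Compounds were added 1 h before stimulation and left for 24 h (MyoF 48 h; BT 72 h for soluble read-outs or 6 d for IgG). Biomarkers were read by ELISA, cytotoxicity by SRB, PBMC viability and proliferation by Alamar Blue. Each well value was divided by the mean of 8 DMSO control wells on the same plate and log10 transformed; duplicate blinded samples were tested at 4 concentrations.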

Compound in a further assay: Cn1cnc([N+](=O)[O-])c1Sc1ncnc2[nH]cnc12 [Azathioprine]
The procedure:
as §1

Compound in assay [2]: CC(C)(C)C(=O)CC(=O)C(F)(F)C(F)(F)C(F)(F)F [(Heptafluorobutanoyl)pivaloylmethane]
The procedure: as §1

Compound in assay [3]: O=P(O)(O)CCC(F)(F)C(F)(F)C(F)(F)C(F)(F)C(F)(F)C(F)(F)C(F)(F)C(F)(F)F [((Perfluorooctyl)ethyl)phosphonic acid]
The procedure: as §1

Compound in assay [4]: O=C(O)CCC(F)(F)C(F)(F)C(F)(F)F [3:3 Fluorotelomer carboxylic acid]
The procedure: as §1

Compound in assay [5]: O=S(=O)(O)C(F)(F)C(F)(F)C(F)(F)C(F)(F)C(F)(F)C(F)(F)C(F)(F)C(F)(F)F [Perfluorooctanesulfonic acid]
The procedure:
as §1

As for SAg:CD40, the “level (log10)” value in assay [1] (6700 nM) was -0.013 ± 0.033; in assay [1] (20000 nM) it was -0.024 ± 0.031; with Azathioprine (1400 nM) it was -0.0125 ± 0.042; in the assay with Azathioprine (4200 nM), -0.0095 ± 0.019; in the assay with Azathioprine (13000 nM), -0.055 ± 0.025; with Azathioprine (38000 nM), -0.118 ± 0.033. The “level (log10)” value in assay [2] (6700 nM) is -0.0125 ± 0.011; in assay [2] (20000 nM), -0.0335 ± 0.0021; in assay [2] (60000 nM), -0.0515 ± 0.0078; in assay [3] (6700 nM), -0.0305 ± 0.0078; in assay [3] (20000 nM), -0.0405 ± 0.018; in assay [3] (60000 nM), -0.136 ± 0.025. Also, the “level (log10)” value in assay [4] (6700 nM) was -0.002 ± 0.0071; in assay [4] (20000 nM) it was -0.008 ± 0.011; in assay [4] (60000 nM), -0.015 ± 0.0042; in assay [5] (6700 nM), -0.0165 ± 0.05; in assay [5] (20000 nM), -0.032 ± 0.038; in assay [5] (60000 nM), -0.054 ± 0.013.

On to SAg:CD62E/E-Selectin, for which the “level (log10)” value was -0.017 ± 0.0042 in assay [1] (6700 nM); 0.017 ± 0.014 in assay [1] (20000 nM); -0.007 ± 0.013 in the assay with Azathioprine (1400 nM); -0.0485 ± 0.023 in the assay with Azathioprine (4200 nM); -0.07 ± 0.027 in the assay with Azathioprine (13000 nM); -0.284 ± 0.018 in the assay with Azathioprine (38000 nM). For the same test system, the “level (log10)” value is -0.003 ± 0.042 in assay [2] (6700 nM); -0.0235 ± 0.005 in assay [2] (20000 nM); -0.106 ± 0.04 in assay [2] (60000 nM); 0.0135 ± 0.0021 in assay [3] (6700 nM); 0.0275 ± 0.019 in assay [3] (20000 nM); -0.0155 ± 0.03 in assay [3] (60000 nM). In addition, the “level (log10)” value in assay [4] (6700 nM) was -0.0265 ± 0.0021; in assay [4] (20000 nM), -0.0185 ± 0.032; in assay [4] (60000 nM) it was -0.007 ± 0.0085; in assay [5] (6700 nM), 0.012 ± 0.014; in assay [5] (20000 nM), 0.0205 ± 0.0021; in assay [5] (60000 nM) it was 0.04 ± 0.028.

Turning to SAg:CD69, the “level (log10)” value in assay [1] (6700 nM) was -0.0405 ± 0.043; in assay [1] (20000 nM), -0.035 ± 0.028; with Azathioprine (1400 nM), 0.0215 ± 0.044; with Azathioprine (4200 nM), -0.0295 ± 0.016; with Azathioprine (13000 nM), -0.039 ± 0.018; in the assay with Azathioprine (38000 nM), -0.12 ± 0.013. The “level (log10)” value was -0.027 ± 0.023 in assay [2] (6700 nM); -0.023 ± 0.02 in assay [2] (20000 nM); -0.007 ± 0.014 in assay [2] (60000 nM); -0.01 ± 0.017 in assay [3] (6700 nM); -0.016 ± 0.05 in assay [3] (20000 nM); -0.006 ± 0.052 in assay [3] (60000 nM). Further, the “level (log10)” value in assay [4] (6700 nM) was 0.001 ± 0.04; in assay [4] (20000 nM), -0.005 ± 0.023; in assay [4] (60000 nM), -0.021 ± 0.0057; in assay [5] (6700 nM), -0.013 ± 0.0014; in assay [5] (20000 nM), -0.0035 ± 0.018; in assay [5] (60000 nM), 0.0035 ± 0.016.

Consider SAg:CXCL8/IL-8, for which the “level (log10)” value is 0.0125 ± 0.0078 in assay [1] (6700 nM); 0.0445 ± 0.0092 in assay [1] (20000 nM); 0.022 ± 0.1 with Azathioprine (1400 nM); -0.038 ± 0.061 with Azathioprine (4200 nM); -0.13 ± 0.021 with Azathioprine (13000 nM); -0.304 ± 0.013 in the assay with Azathioprine (38000 nM). Moreover, the “level (log10)” value in assay [2] (6700 nM) was -0.0195 ± 0.046; in assay [2] (20000 nM) it was -0.062 ± 0.024; in assay [2] (60000 nM) it was -0.098 ± 0.14; in assay [3] (6700 nM), 0.022 ± 0.023; in assay [3] (20000 nM), 0.037 ± 0.03; in assay [3] (60000 nM) it was 0.052 ± 0.011. For the same test system, the “level (log10)” value in assay [4] (6700 nM) was -0.0145 ± 0.00071; in assay [4] (20000 nM) it was -0.016 ± 0.011; in assay [4] (60000 nM) it was -0.0035 ± 0.013; in assay [5] (6700 nM) it was -0.015; in assay [5] (20000 nM) it was 0.01 ± 0.0057; in assay [5] (60000 nM), 0.041 ± 0.0085.

Consider SAg:CXCL9/MIG, for which the “level (log10)” value in assay [1] (6700 nM) is -0.001 ± 0.013; in assay [1] (20000 nM), -0.0025 ± 0.0021; with Azathioprine (1400 nM), 0.006 ± 0.024; with Azathioprine (4200 nM), 0.002 ± 0.0057; with Azathioprine (13000 nM), 0.0025 ± 0.0078; with Azathioprine (38000 nM), 0.008 ± 0.0085. Besides, the “level (log10)” value in assay [2] (6700 nM) was -0.002 ± 0.011; in assay [2] (20000 nM), 0.0015 ± 0.00071; in assay [2] (60000 nM) it was 0.002 ± 0.016; in assay [3] (6700 nM), 0.001 ± 0.0028; in assay [3] (20000 nM), 0.006 ± 0.0085; in assay [3] (60000 nM), -0.0115 ± 0.023. Besides, the “level (log10)” value in assay [4] (6700 nM) is 0.001 ± 0.0028; in assay [4] (20000 nM), -0.009 ± 0.0014; in assay [4] (60000 nM), 0.001 ± 0.014; in assay [5] (6700 nM), -0.0035 ± 0.0035; in assay [5] (20000 nM) it was 0.0105 ± 0.012; in assay [5] (60000 nM) it was 0.005 ± 0.013.

For SAg:PBMC Cytotoxicity, the “level (log10)” value in assay [1] (6700 nM) was 0.032 ± 0.028; in assay [1] (20000 nM) it was 0.0255 ± 0.032; with Azathioprine (1400 nM), -0.007 ± 0.033; in the assay with Azathioprine (4200 nM), -0.0015 ± 0.044; with Azathioprine (13000 nM), -0.0385 ± 0.03; with Azathioprine (38000 nM), -0.0635 ± 0.023. The “level (log10)” value in assay [2] (6700 nM) is -0.0265 ± 0.013; in assay [2] (20000 nM) it was -0.007 ± 0.017; in assay [2] (60000 nM), -0.124 ± 0.15; in assay [3] (6700 nM), -0.025 ± 0.017; in assay [3] (20000 nM), -0.04 ± 0.0042; in assay [3] (60000 nM), -0.037 ± 0.037. In addition, the “level (log10)” value was -0.022 ± 0.0071 in assay [4] (6700 nM); -0.014 ± 0.031 in assay [4] (20000 nM); -0.0045 ± 0.035 in assay [4] (60000 nM); 0.0135 ± 0.0092 in assay [5] (6700 nM); 0.021 ± 0.013 in assay [5] (20000 nM); 0.0185 ± 0.013 in assay [5] (60000 nM).

For SAg:Proliferation, the “level (log10)” value was -0.036 ± 0.033 in assay [1] (6700 nM); 0.02 ± 0.02 in assay [1] (20000 nM); -0.017 ± 0.047 with Azathioprine (1400 nM); -0.052 ± 0.035 with Azathioprine (4200 nM); -0.172 ± 0.005 with Azathioprine (13000 nM); -0.29 ± 0.021 with Azathioprine (38000 nM). Further, the “level (log10)” value in assay [2] (6700 nM) was -0.0415 ± 0.011; in assay [2] (20000 nM) it was -0.033 ± 0.0057; in assay [2] (60000 nM), -0.0835 ± 0.1; in assay [3] (6700 nM) it was -0.023 ± 0.023; in assay [3] (20000 nM) it was -0.03 ± 0.0071; in assay [3] (60000 nM), -0.0345 ± 0.077. For the same test system, the “level (log10)” value in assay [4] (6700 nM) is -0.021 ± 0.013; in assay [4] (20000 nM), 0.0205 ± 0.053; in assay [4] (60000 nM), -0.006 ± 0.0085; in assay [5] (6700 nM), 0.001 ± 0.031; in assay [5] (20000 nM), 0.0185 ± 0.011; in assay [5] (60000 nM), 0.0675 ± 0.00071.

For the test system SAg:SRB, the “level (log10)” value in assay [1] (6700 nM) was -0.003 ± 0.0099; in assay [1] (20000 nM) it was -0.0105 ± 0.005; with Azathioprine (1400 nM) it was 0.002 ± 0.0057; in the assay with Azathioprine (4200 nM) it was 0.0045 ± 0.013; in the assay with Azathioprine (13000 nM), -0.009 ± 0.0042; with Azathioprine (38000 nM), -0.0205 ± 0.026. The “level (log10)” value was -0.0035 ± 0.0092 in assay [2] (6700 nM); -0.0025 ± 0.005 in assay [2] (20000 nM); -0.031 ± 0.034 in assay [2] (60000 nM); -0.01 ± 0.021 in assay [3] (6700 nM); -0.042 ± 0.034 in assay [3] (20000 nM); -0.125 ± 0.044 in assay [3] (60000 nM). The “level (log10)” value in assay [4] (6700 nM) was -0.0065 ± 0.011; in assay [4] (20000 nM), -0.0065 ± 0.0078; in assay [4] (60000 nM) it was -0.005 ± 0.016; in assay [5] (6700 nM), 0.004 ± 0.0042; in assay [5] (20000 nM) it was -0.0095 ± 0.0078; in assay [5] (60000 nM), -0.0265 ± 0.011.
